Data: ChEMBL document CHEMBL1136268, “Retinoic acid receptor ligands based on the 6-cyclopropyl-2,4-hexadienoic acid” (Bioorg Med Chem Lett, 2003)
Residue numbers refer to the chain shown, from its start.

Columns and labels:
[1] = molecular target: T1, Retinoic acid receptor gamma (Homo sapiens, UniProt P13631); experiment: Inhibition of [3H]ATRA binding to human Retinoic acid receptor RAR gamma
T1 sequence (P13631 whole entry): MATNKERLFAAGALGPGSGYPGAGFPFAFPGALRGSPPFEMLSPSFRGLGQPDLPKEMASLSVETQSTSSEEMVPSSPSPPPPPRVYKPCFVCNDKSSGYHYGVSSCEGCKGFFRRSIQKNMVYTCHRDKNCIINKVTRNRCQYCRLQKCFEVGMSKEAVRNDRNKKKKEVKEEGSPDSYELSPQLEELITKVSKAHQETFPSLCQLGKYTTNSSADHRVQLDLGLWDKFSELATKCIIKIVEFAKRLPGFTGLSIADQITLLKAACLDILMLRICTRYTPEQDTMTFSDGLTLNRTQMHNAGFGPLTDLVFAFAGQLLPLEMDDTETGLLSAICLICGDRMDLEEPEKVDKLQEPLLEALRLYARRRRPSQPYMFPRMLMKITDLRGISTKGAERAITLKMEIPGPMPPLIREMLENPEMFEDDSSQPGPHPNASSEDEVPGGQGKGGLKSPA

[2] = molecular target: T2, Retinoic acid receptor RXR-gamma (Homo sapiens, UniProt P48443); experiment: Inhibition of [3H]-9-cis-RA binding to human Retinoid X receptor RXR gamma
T2 sequence (P48443 whole entry): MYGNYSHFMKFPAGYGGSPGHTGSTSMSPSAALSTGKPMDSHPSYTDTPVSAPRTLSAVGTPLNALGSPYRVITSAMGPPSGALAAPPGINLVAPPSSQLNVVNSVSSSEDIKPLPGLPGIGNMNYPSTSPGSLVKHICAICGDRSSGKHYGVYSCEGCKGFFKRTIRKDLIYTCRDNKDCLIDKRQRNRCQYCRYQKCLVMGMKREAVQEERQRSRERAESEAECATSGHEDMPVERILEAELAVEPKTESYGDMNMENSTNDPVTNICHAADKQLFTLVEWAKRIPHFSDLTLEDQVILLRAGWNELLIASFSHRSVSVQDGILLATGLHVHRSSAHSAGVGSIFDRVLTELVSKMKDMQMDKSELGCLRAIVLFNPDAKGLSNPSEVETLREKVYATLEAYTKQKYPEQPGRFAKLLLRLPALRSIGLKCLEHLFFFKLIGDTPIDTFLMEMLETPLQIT

[3] = molecular target: T3, Retinoic acid receptor beta (Homo sapiens, UniProt P10826); experiment: Transcriptional activation in CV-1 cells expressing human Retinoic acid receptor RAR beta; Not active; type: cell-based
T3 sequence (P10826 whole entry): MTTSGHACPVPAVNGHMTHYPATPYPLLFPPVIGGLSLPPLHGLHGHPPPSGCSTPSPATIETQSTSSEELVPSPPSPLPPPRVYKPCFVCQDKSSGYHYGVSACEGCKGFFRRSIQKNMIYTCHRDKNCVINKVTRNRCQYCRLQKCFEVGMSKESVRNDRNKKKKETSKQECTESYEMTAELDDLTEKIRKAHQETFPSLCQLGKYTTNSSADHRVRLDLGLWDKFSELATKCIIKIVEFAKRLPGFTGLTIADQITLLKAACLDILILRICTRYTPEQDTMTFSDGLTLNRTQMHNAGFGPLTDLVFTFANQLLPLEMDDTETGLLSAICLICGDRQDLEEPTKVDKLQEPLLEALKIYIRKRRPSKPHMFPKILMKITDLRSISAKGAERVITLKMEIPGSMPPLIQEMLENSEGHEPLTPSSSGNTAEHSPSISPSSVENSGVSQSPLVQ

[4] = molecular target: T3, Retinoic acid receptor beta; experiment: Inhibition of [3H]-ATRA binding to human Retinoic acid receptor RAR beta
[5] = molecular target: T4, Retinoic acid receptor alpha (Homo sapiens, UniProt P10276); experiment: Transcriptional activation in CV-1 cells expressing human Retinoic acid receptor RAR alpha; Not active; type: cell-based
T4 sequence (P10276 whole entry): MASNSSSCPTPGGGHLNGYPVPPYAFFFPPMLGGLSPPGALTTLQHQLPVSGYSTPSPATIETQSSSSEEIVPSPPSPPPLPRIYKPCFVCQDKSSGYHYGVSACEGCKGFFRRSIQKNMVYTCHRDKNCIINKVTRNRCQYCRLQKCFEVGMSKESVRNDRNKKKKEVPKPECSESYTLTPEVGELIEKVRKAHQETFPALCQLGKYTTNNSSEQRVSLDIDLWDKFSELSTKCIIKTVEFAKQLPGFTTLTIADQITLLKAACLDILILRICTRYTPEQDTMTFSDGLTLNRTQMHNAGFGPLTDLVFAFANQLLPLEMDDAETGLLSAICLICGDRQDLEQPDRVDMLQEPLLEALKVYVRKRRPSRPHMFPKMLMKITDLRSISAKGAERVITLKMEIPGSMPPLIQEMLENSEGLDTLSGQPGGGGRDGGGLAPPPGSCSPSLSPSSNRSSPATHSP

[6] = molecular target: T4, Retinoic acid receptor alpha; experiment: Inhibition of [3H]ATRA binding to human Retinoic acid receptor RAR alpha
[7] = molecular target: T1, Retinoic acid receptor gamma; experiment: Transcriptional activation in CV-1 cells expressing human Retinoic acid receptor RAR gamma; Not active; type: cell-based
[8] = molecular target: T5, Retinoic acid receptor RXR-alpha (Homo sapiens, UniProt P19793); experiment: Inhibition of [3H]9-cis-RA binding to human Retinoid X receptor RXR alpha
T5 sequence (P19793 whole entry): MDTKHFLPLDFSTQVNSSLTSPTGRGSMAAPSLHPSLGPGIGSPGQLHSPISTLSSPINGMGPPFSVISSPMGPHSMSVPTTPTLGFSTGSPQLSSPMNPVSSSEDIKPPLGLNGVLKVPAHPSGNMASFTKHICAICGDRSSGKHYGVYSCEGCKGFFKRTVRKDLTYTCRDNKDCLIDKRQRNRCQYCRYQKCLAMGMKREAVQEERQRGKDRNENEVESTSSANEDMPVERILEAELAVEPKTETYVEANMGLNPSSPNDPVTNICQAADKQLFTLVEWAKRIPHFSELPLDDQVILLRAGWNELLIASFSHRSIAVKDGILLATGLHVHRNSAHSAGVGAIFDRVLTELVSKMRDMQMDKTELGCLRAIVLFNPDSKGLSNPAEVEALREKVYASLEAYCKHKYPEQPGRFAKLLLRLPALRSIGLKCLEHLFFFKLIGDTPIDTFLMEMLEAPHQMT

[9] = molecular target: T6, Retinoic acid receptor RXR-gamma (Mus musculus, UniProt P28705); experiment: Transcriptional activation in CV-1 cells expressing mouse Retinoid X receptor RXR gamma; type: cell-based
T6 sequence (P28705 whole entry): T2 sequence (P48443 whole entry) with A13T, Y15F, A31V, S34P, T228S, G230S, M258V, T450S

[10] = molecular target: T5, Retinoic acid receptor RXR-alpha; experiment: Transcriptional activation in CV-1 cells expressing human Retinoid X receptor RXR-alpha; type: cell-based
[11] = molecular target: T7, Retinoic acid receptor RXR-beta (Mus musculus, UniProt P28704); experiment: Inhibition of [3H]9-cis-RA binding to mouse Retinoid X receptor RXR beta
T7 sequence (P28704 whole entry): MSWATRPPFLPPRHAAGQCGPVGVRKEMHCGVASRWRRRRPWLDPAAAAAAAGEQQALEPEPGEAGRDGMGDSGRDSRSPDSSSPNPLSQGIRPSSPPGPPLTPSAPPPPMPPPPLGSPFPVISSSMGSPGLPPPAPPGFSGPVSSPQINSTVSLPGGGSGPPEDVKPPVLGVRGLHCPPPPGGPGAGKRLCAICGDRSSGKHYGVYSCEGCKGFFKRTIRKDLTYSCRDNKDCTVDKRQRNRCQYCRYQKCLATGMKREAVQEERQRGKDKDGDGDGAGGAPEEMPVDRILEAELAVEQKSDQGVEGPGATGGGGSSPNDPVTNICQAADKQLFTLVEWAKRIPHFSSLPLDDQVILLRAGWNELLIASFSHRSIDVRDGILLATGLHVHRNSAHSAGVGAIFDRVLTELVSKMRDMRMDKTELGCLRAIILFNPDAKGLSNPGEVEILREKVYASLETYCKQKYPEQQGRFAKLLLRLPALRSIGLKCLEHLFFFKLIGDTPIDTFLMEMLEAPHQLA

[12] = molecular target: T7, Retinoic acid receptor RXR-beta; experiment: Transcriptional activation in CV-1 cells expressing mouse Retinoid X receptor RXR beta; type: cell-based
[13] = molecular target: T3, Retinoic acid receptor beta; experiment: Transcriptional activation in CV-1 cells expressing human Retinoic acid receptor RAR beta; type: cell-based
[14] = molecular target: T4, Retinoic acid receptor alpha; experiment: Transcriptional activation in CV-1 cells expressing human Retinoic acid receptor RAR alpha; type: cell-based
[15] = molecular target: T1, Retinoic acid receptor gamma; experiment: Transcriptional activation in CV-1 cells expressing human Retinoic acid receptor RAR gamma; type: cell-based

| SMILES | Kd [1] [nM] | Kd [2] [nM] | EC50 [3] | Kd [4] [nM] | EC50 [5] | Kd [6] [nM] | EC50 [7] | Kd [8] [nM] | EC50 [9] [nM] | EC50 [10] [nM] | Kd [11] [nM] | EC50 [12] [nM] | EC50 [13] [nM] | EC50 [14] [nM] | EC50 [15] [nM] |
| --- | --- | --- | --- | --- | --- | --- | --- | --- | --- | --- | --- | --- | --- | --- | --- |
| CC(/C=C/CC1(c2cc(C(C)(C)C)cc3c2CCC3(C)C)CC1)=C\C(=O)O | > 1000 | 22 | Not Active | > 1000 | Not Active | > 1000 | Not Active |  |  |  |  |  |  |  |  |
| CC(/C=C/CC1(c2cc3c(cc2C)C(C)(C)CCC3(C)C)CC1)=C\C(=O)O | > 1000 | 153 | Not Active |  | Not Active | > 1000 | Not Active | 16 | 36 | 31 | 18 | 9 |  |  |  |
| CC(/C=C/CC1(c2ccc3c(c2)C(C)(C)CCC3(C)C)CCCC1)=C\C(=O)O | > 1000 | 6 | Not Active | > 1000 | Not Active | > 1000 | Not Active |  | 24 |  | 7 | 19 |  |  |  |
| CC(/C=C/CC1(c2cc(C(C)(C)C)cc(C(C)(C)C)c2)CC1)=C\C(=O)O | > 1000 |  |  | > 1000 |  | > 1000 |  | 3 | 23 | 30 | 8 | 19 | 139 | 733 | 391 |
| CC(/C=C/CC1(c2ccc3c(c2)C(C)(C)CCC3(C)C)CC1)=C\C(=O)O |  | 8 |  |  |  |  |  |  |  |  |  |  |  |  |  |
